The values that follow come from patent US10023558B2, “Compounds” (CHIESI FARMACEUTICI S.P.A., priority 2016, dated 2018).

Some results are limits rather than exact numbers.

This experiment addresses T1, human neutrophil elastase (HNE) (Homo sapiens, UniProt P08246).
T1 construct: purchased Sigma E8140
T1 sequence (P08246 30-247 limits assumed): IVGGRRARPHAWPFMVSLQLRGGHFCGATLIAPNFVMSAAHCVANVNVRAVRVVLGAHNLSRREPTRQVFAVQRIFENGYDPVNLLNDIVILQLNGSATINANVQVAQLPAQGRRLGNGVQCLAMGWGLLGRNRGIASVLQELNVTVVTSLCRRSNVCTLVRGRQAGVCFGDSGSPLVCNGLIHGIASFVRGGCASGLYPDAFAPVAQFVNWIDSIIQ
Briefly: HNE Enzyme Assay (fluorogenic peptide substrate MeOSuc-Ala-Ala-Pro-Val-AMC). It counts as biochemical. The conditions noted are these: human leukocyte elastase 0.00072 U/mL, substrate 100 μM, 25° C., 30 minutes, at least two separate experiments; read-out: HNE inhibition (IC50 values). An outline of the steps: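 Human leukocyte elastase (0.00072 U/mL) with 100 μM MeOSuc-AAPV-AMC in Tris pH 7.5 buffer with NaCl, CaCl2, Brij-35, 1% DMSO, 30 min at 25° C, stopped with soybean trypsin inhibitor. AMC fluorescence (ex 380/em 460 nm); IC50 from concentration-response as % inhibition of control, at least two experiments.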
As for `Cc1cc(C[N+](C)(C)[C@H]2CC[C@H](NC(=O)n3c(-c4ccnn4-c4ccc(C#N)cc4)c(C)n(-c4cccc(C(F)(F)F)c4)c3=O)CC2)n(C)n1` [Example 76, (4-{[5-[2-(4-Cyano-phenyl)-2H-pyrazol-3-yl]-4-methyl-2-oxo-3-(3-trifluoromethyl-phenyl)-2,3-dihydro-imidazole-1-carbonyl]-amino}-cyclohexyl)-(2,5-dimethyl-2H-pyrazol-3-ylmethyl)-dimethyl-ammonium chloride], the IC50 is below 1 nM.
The figure for `Cc1c(-c2ccnn2-c2ccc(C#N)cc2)n(C(=O)N[C@H]2CC[C@H](C(=O)NCC[N+](C)(C)C)CC2)c(=O)n1-c1cccc(C(F)(F)F)c1` [Example 77, {2-[(Trans-4-{[5-[2-(4-cyano-phenyl)-2H-pyrazol-3-yl]-4-methyl-2-oxo-3-(3-trifluoromethyl-phenyl)-2,3-dihydro-imidazole-1-carbonyl]-amino}-cyclohexanecarbonyl)-amino]-ethyl}-trimethyl-ammonium benzene sulfonate] is below 1 nM; for `Cc1c(-c2ccnn2-c2ccc(C#N)cc2)n(C(=O)NC(C)(C)c2ncc(C[N+](C)(C)C)o2)c(=O)n1-c1cccc(C(F)(F)F)c1` [Example 78, [2-(1-{[5-[2-(4-Cyano-phenyl)-2H-pyrazol-3-yl]-4-methyl-2-oxo-3-(3-trifluoromethyl-phenyl)-2,3-dihydro-imidazole-1-carbonyl]-amino}-1-methyl-ethyl)-oxazol-5-ylmethyl]-trimethyl-ammonium benzene sulfonate] it is below 1 nM; for `Cc1c(-c2ccnn2-c2ccc(C#N)cc2)n(C(=O)NC2(c3ncc(C[N+](C)(C)C)o3)CC2)c(=O)n1-c1cccc(C(F)(F)F)c1` [Example 79, [2-(1-{[5-[2-(4-Cyano-phenyl)-2H-pyrazol-3-yl]-4-methyl-2-oxo-3-(3-trifluoromethyl-phenyl)-2,3-dihydro-imidazole-1-carbonyl]-amino}-cyclopropyl)-oxazol-5-ylmethyl]-trimethyl-ammonium benzene sulfonate] it is below 1 nM.
Turning to `Cc1c(-c2ccnn2-c2ccc(C#N)cc2)n(C(=O)N[C@H]2CC[C@@H](C(=O)NCC[N+](C)(C)C)CC2)c(=O)n1-c1cccc(C(F)(F)F)c1` [Example 80, {2-[(Cis-4-{[5-[2-(4-cyano-phenyl)-2H-pyrazol-3-yl]-4-methyl-2-oxo-3-(3-trifluoromethyl-phenyl)-2,3-dihydro-imidazole-1-carbonyl]-amino}-cyclohexanecarbonyl)-amino]-ethyl}-trimethyl-ammonium benzene sulfonate], the IC50 fell in the range of 1 to 10 nM.
Consider `Cc1c(-c2ccnn2-c2ccc(C#N)cc2)n(C(=O)N[C@H]2CC[C@H](C(=O)OCC[N+](C)(C)C)CC2)c(=O)n1-c1cccc(C(F)(F)F)c1` [Example 82, [2-(Trans-4-{[5-[2-(4-cyano-phenyl)-2H-pyrazol-3-yl]-4-methyl-2-oxo-3-(3-trifluoromethyl-phenyl)-2,3-dihydro-imidazole-1-carbonyl]-amino}-cyclohexanecarbonyloxy)-ethyl]-trimethyl-ammonium benzene sulfonate], for which the IC50 is below 1 nM.
With `Cc1c(-c2ccnn2-c2ccc(C#N)cc2)n(C(=O)N[C@H]2C[C@H](C(=O)NCC[N+](C)(C)C)C2)c(=O)n1-c1cccc(C(F)(F)F)c1` [Example 83, {2-[(Trans-3-{[5-[2-(4-cyano-phenyl)-2H-pyrazol-3-yl]-4-methyl-2-oxo-3-(3-trifluoromethyl-phenyl)-2,3-dihydro-imidazole-1-carbonyl]-amino}-cyclobutanecarbonyl)-amino]-ethyl}-trimethyl-ammonium benzene sulfonate], the IC50 is below 1 nM.
In the case of `Cc1c(-c2ccnn2-c2ccc(C#N)cc2)n(C(=O)NC2(C)CCN(C(=O)C[N+](C)(C)C)CC2)c(=O)n1-c1cccc(C(F)(F)F)c1` [Example 84, [2-(4-{[5-[2-(4-Cyano-phenyl)-2H-pyrazol-3-yl]-4-methyl-2-oxo-3-(3-trifluoromethyl-phenyl)-2,3-dihydro-imidazole-1-carbonyl]-amino}-4-methyl-piperidin-1-yl)-2-oxo-ethyl]-trimethyl-ammonium benzene sulfonate], the IC50 was below 1 nM.
Under `Cc1c(-c2ccnn2-c2ccc(C#N)cc2)n(C(=O)N[C@H]2CC[C@H](CNC(=O)C[N+](C)(C)C)CC2)c(=O)n1-c1cccc(C(F)(F)F)c1` [Example 86, {[(Trans-4-{[5-[2-(4-cyano-phenyl)-2H-pyrazol-3-yl]-4-methyl-2-oxo-3-(3-trifluoromethyl-phenyl)-2,3-dihydro-imidazole-1-carbonyl]-amino}-cyclohexylmethyl)-carbamoyl]-methyl}-trimethyl-ammonium benzene sulfonate] stands below 1 nM; under `Cc1c(-c2ccnn2-c2ccc(C#N)cc2)n(C(=O)N[C@H]2CC[C@H](NC(=O)C[N+](C)(C)C)CC2)c(=O)n1-c1cccc(C(F)(F)F)c1` [Example 87, [(Trans-4-{[5-[2-(4-cyano-phenyl)-2H-pyrazol-3-yl]-4-methyl-2-oxo-3-(3-trifluoromethyl-phenyl)-2,3-dihydro-imidazole-1-carbonyl]-amino}-cyclohexylcarbamoyl)-methyl]-trimethyl-ammonium benzene sulfonate], below 1 nM; under `Cc1c(-c2ccnn2-c2ccc(C#N)cc2)n(C(=O)N[C@H]2CC[C@H](C(=O)N3CCC([N+](C)(C)C)CC3)CC2)c(=O)n1-c1cccc(C(F)(F)F)c1` [Example 88, [1-(Trans-4-{[5-[2-(4-cyano-phenyl)-2H-pyrazol-3-yl]-4-methyl-2-oxo-3-(3-trifiuoromethyl-phenyl)-2,3-dihydro-imidazole-1-carbonyl]-amino}-cyclohexanecarbonyl)-piperidin-4-yl]-trimethyl-ammonium benzene sulfonate], below 1 nM.
Consider `Cc1c(-c2ccnn2-c2ccc(C#N)cc2)n(C(=O)N[C@H]2CC[C@H](C(=O)N(C)CC[N+](C)(C)C)CC2)c(=O)n1-c1cccc(C(F)(F)F)c1` [Example 89, {2-[(Trans-4-{[5-[2-(4-cyano-phenyl)-2H-pyrazol-3-yl]-4-methyl-2-oxo-3-(3-trifluoromethyl-phenyl)-2,3-dihydro-imidazole-1-carbonyl]-amino}-cyclohexanecarbonyl)-methyl-amino]-ethyl}-trimethyl-ammonium benzene sulfonate], for which the IC50 was below 1 nM.
In the case of `Cc1c(-c2ccnn2-c2ccc(C#N)cc2)n(C(=O)N[C@H]2CC[C@H](C(=O)NC3CC[N+](C)(C)CC3)CC2)c(=O)n1-c1cccc(C(F)(F)F)c1` [Example 90, 4-[(Trans-4-{[5-[2-(4-cyano-phenyl)-2H-pyrazol-3-yl]-4-methyl-2-oxo-3-(3-trifluoromethyl-phenyl)-2,3-dihydro-imidazole-1-carbonyl]-amino}-cyclohexanecarbonyl)-amino]-1,1-dimethyl-piperidinium benzene sulfonate], the IC50 was below 1 nM.
Regarding `Cc1c(-c2ccnn2-c2ccc(C#N)cc2)n(C(=O)N[C@@H](C)C(=O)N(C)C2CC[N+](C)(C)CC2)c(=O)n1-c1cccc(C(F)(F)F)c1` [Example 91, 4-[((S)-2-{[5-[2-(4-Cyano-phenyl)-2H-pyrazol-3-yl]-4-methyl-2-oxo-3-(3-trifluoromethyl-phenyl)-2,3-dihydro-imidazole-1-carbonyl]-amino}-propionyl)-methyl-amino]-1,1-dimethyl-piperidinium benzene sulfonate], the IC50 is below 1 nM.
Turning to `Cc1c(-c2ccnn2-c2ccc(C#N)cc2)n(C(=O)NC2CCN(C(=O)NCC[N+](C)(C)C)CC2)c(=O)n1-c1cccc(C(F)(F)F)c1` [Example 92, {2-[(4-{[5-[2-(4-Cyano-phenyl)-2H-pyrazol-3-yl]-4-methyl-2-oxo-3-(3-trifluoromethyl-phenyl)-2,3-dihydro-imidazole-1-carbonyl]-amino}-piperidine-1-carbonyl)-amino]-ethyl}-trimethyl-ammonium benzene sulfonate], the IC50 is below 1 nM.
For `Cc1c(-c2ccnn2-c2ccc(C#N)cc2)n(C(=O)NC2CCN(C(=O)OCC[N+](C)(C)C)CC2)c(=O)n1-c1cccc(C(F)(F)F)c1` [Example 93, [2-(4-{[5-[2-(4-Cyano-phenyl)-2H-pyrazol-3-yl]-4-methyl-2-oxo-3-(3-trifluoromethyl-phenyl)-2,3-dihydro-imidazole-1-carbonyl]-amino}-piperidine-1-carbonyloxy)-ethyl]-trimethyl-ammonium benzene sulfonate], the IC50 was below 1 nM.
As for `Cc1c(-c2nccn2-c2ccc(C#N)cc2)n(C(=O)NC2CCN(C(=O)C[N+](C)(C)C)CC2)c(=O)n1-c1cccc(C(F)(F)F)c1` [Example 94, [2-(4-{[1-(4-Cyano-phenyl)-5′-methyl-2′-oxo-1′-(3-trifluoromethyl-phenyl)-1′,2′-dihydro-1H-[2,4′]biimidazolyl-3′-carbonyl]-amino}-piperidin-1-yl)-2-oxo-ethyl]-trimethyl-ammonium benzene sulfonate], the IC50 is below 1 nM.

A word on the IC50: it is the point on the concentration scale where inhibition reaches its midpoint.
